Results on 6 compounds are retold here after patent US20030139578A1, “Antibodies specifically binding PDE8A and PDE8B” (Incyte Genomics, Inc., priority 1996, published 2003).

pIC50: −log10 of the molar value.

In the first experiment the target is T1, PDE8A(E) (Homo sapiens, UniProt O60658).
T1 construct: A 1.6 kb region of PDE8A(E) (the C-terminal 545 amino acids) was amplified and cloned into the baculovirus transfer vector pFASTBAC; made in house; host or cells: Sf9 insect cells (baculovirus, pFASTBAC)
T1 sequence (O60658 285-829 limits assumed): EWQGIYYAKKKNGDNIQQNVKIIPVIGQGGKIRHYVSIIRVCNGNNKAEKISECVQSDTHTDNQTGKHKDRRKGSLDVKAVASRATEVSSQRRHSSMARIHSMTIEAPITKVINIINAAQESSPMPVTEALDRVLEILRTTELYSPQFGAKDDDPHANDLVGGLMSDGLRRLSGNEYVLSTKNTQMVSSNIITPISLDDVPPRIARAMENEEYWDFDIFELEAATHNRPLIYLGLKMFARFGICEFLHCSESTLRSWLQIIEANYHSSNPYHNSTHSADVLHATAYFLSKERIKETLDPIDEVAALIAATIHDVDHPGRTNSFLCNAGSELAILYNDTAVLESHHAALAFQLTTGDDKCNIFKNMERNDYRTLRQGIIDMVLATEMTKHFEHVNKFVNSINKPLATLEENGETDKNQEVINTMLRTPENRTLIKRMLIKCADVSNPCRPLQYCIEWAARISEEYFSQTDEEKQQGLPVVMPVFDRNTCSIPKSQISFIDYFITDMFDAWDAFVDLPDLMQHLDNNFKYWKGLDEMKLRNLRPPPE
The experiment is described as follows: PDE activity assay, conversion of 3H-cAMP to 3H-adenosine by recombinant PDE8A(E).
Conditions: not given
The experiment is classed as biochemical. How it is done: Recombinant virus stocks were prepared according to the manufacturer's protocol. Sf9 cells were cultured in Sf900 II Sfm serum free media (Invitrogen) at 27 C. For expression, 1×10^8 Sf9 cells were infected at a multiplicity of infection of 5 in a final volume of 50 mls. At three days post-infection, the cells were harvested, and enzyme-containing lysates were prepared as described below.
PDE8A(E) to be used for assay was prepared from transfected Sf9 cells. Cells were harvested by centrifugation, resuspended in homogenization buffer (20 mM Tris-HCl, 2 mM benzamidine, 1 mM EDTA, 0.25 M sucrose, 100 uM PMSF, pH 7.5) at 1×10^7 cells/ml, and disrupted with 3×10 second pulses using a Sonifier Processor (Emerson Branson, Korea). Cellular debris was removed by centrifugation at 14,000×g for 10 minutes. The supernatant was stored at −70° C.
PDE activity was assayed by measuring the conversion of ^3H-cAMP to ^3H-adenosine in the presence of PDE8A(E) and 5′ nucleotidase. […] The reaction was started by the addition of 25 ul of diluted enzyme supernatant. Reactions were run directly in mini Poly-Q scintillation vials (BeckmanCoulter, Fullerton Calif.). […] The reaction was stopped by the addition of 1 ml of Dowex AG1×8 (C1 form) resin (1:3 slurry). Three ml of scintillation fluid were added, the contents of the vials were mixed, and the resin in the vials was allowed to settle for 1 hr before counting. Soluble radioactivity associated with ^3H-adenosine was quantitated using a Beta scintillation counter. The amount of radioactivity recovered is proportional to the activity of PDE8 in the reaction. For inhibitor studies (FIG. 8), all reactions contained 1% DMSO, 50 nM cAMP, and the indicated inhibitor concentrations. The control vial contained all reagents minus the enzyme aliquot.
In general, pIC50 refers to the IC50 on a negative log10 scale, so that one unit is a factor of ten. Turning to `OCCN(CCO)c1nc(N2CCCCC2)c2nc(N(CCO)CCO)nc(N3CCCCC3)c2n1` [dipyridamole], the pIC50 was 5.05.

The experiment is the same for the next values; noted with them: 1% DMSO, 50 nM cAMP; FIG. 8.
As to `CCOC(=O)C1=C[C@]2(CC)CCCN3CCc4c(n1c1ccccc41)[C@@H]32` [vinpocetine], the “inhibition of PDE8A(E) activity” value is “not inhibited”. `CCCOc1ccccc1-c1nc2nn[nH]c2c(=O)[nH]1` [zaprinast]: the “inhibition of PDE8A(E) activity” value is “not inhibited”. Regarding `COc1ccc(C2CNC(=O)C2)cc1OC1CCCC1` (stereo not drawn) [rolipram], the “inhibition of PDE8A(E) activity” value is recorded as “not inhibited”. For `CC(C)Cn1c(=O)n(C)c(=O)c2[nH]cnc21` [IBMX], the “inhibition of PDE8A(E) activity” value is reported as “not inhibited”.

On to `CC(=O)Nc1ccc(-c2c[nH]c(=O)cn2)cc1` [SKF94120], for which the “inhibition of PDE8A(E) activity” value was “not inhibited”.
